Here are results for 6 compounds from ChEMBL document CHEMBL5143746, “SJPYT-195: A Designed Nuclear Receptor Degrader That Functions as a Molecular Glue Degrader of GSPT1” (ACS Med Chem Lett, 2022).

One may read the EC50 as the concentration needed to bring the measured effect to its halfway point. A word on the CC50: it is the concentration that lowers cell viability or growth by half. A lower CC50 goes with harm at low concentration.

The target of data set [1] is Protein cereblon/DNA damage-binding protein 1 (Homo sapiens, UniProt Q96SW2). As to the kind of experiment: Displacement of BODIPY FL thalidomide from 6His-tagged CRBN/DDB1 (unknown origin) expressed in baculovirus infected Sf9 insect cells incubated for 1 min under shaking condition followed by 60 mins incubation under dark condition by TR-FRET assay. In general terms: Time-resolved FRET reads energy transfer from a long-lived donor to a nearby acceptor.

For data set [2], the target named is T1, Protein cereblon/Peptidyl-prolyl cis-trans isomerase FKBP1A/Nuclear receptor subfamily 1 group I member 2 (Homo sapiens, UniProt P62942+O75469+Q96SW2, F37V). As to the kind of experiment: Molecular glue activity at HA-tagged […]/2HA-tagged PXR fused HiBiT-tagged FKBP12 (F36V) mutant (unknown origin) expressed in HepG2 cells assessed as induction of PXR degradation by measuring change in FKBP-PXR expression at 1 uM measured after 24 hrs by Western blot analysis relative to control. Conditions: hepg2, 24 h; call rule not given here. The format is cell-based. In general terms: The HiBiT peptide binds its large partner to form an active luciferase.

The subject of data set [3] is HepG2. As to the kind of experiment: Binding affinity to 2HA-tagged PXR fused HiBiT-tagged FKBP12 (F36V) mutant (unknown origin) expressed in HepG2 cells assessed as change in FKBP-PXR expression at 0.0001 uM measured after 24 hrs by Western blot analysis relative to control. The format is cell-based. The note with it: Homo sapiens.
Data set [4] has as its target T1, Protein cereblon/Peptidyl-prolyl cis-trans isomerase FKBP1A/Nuclear receptor subfamily 1 group I member 2. The experiment in a line: Molecular glue activity at HA-tagged […]/2HA-tagged PXR fused HiBiT-tagged FKBP12 (F36V) mutant (unknown origin) expressed in HepG2 cells assessed as induction of PXR degradation by measuring change in CRBN expression at 0.001 uM measured after 24 hrs by Western blot analysis relative to control. In kind it is cell-based. The note with it: hepg2, 24 h.

Data set [5] has the same target. The experiment in a line: Molecular glue activity at HA-tagged […]/2HA-tagged PXR fused HiBiT-tagged FKBP12 (F36V) mutant (unknown origin) expressed in HepG2 cells assessed as induction of PXR degradation by measuring change in FKBP-PXR expression at 0.0001 uM measured after 24 hrs by Western blot analysis relative to control. In kind it is cell-based. Conditions: hepg2, 24 h.

Data set [6] shares this target. The experiment in a line: Molecular glue activity at HA-tagged […]/2HA-tagged PXR fused HiBiT-tagged FKBP12 (F36V) mutant (unknown origin) expressed in HepG2 cells assessed as induction of PXR degradation by measuring change in FKBP-PXR expression at 0.01 uM measured after 24 hrs by Western blot analysis relative to control. Conditions: hepg2, 24 h. In kind it is cell-based.

Data set [7] shares this target. As to the kind of experiment: Molecular glue activity at HA-tagged […]/2HA-tagged PXR fused HiBiT-tagged FKBP12 (F36V) mutant (unknown origin) expressed in HepG2 cells assessed as induction of PXR degradation by measuring change in CRBN expression at 1 uM measured after 24 hrs by Western blot analysis relative to control. The format is cell-based. The note with it: hepg2, 24 h.

Data set [8] has the same target. As to the kind of experiment: Molecular glue activity at HA-tagged […]/2HA-tagged PXR fused HiBiT-tagged FKBP12 (F36V) mutant (unknown origin) expressed in HepG2 cells assessed as induction of PXR degradation by measuring change in CRBN expression at 10 uM measured after 24 hrs by Western blot analysis relative to control. In kind it is cell-based. The note with it: hepg2, 24 h.

Data set [9] concerns HepG2. As to the kind of experiment: Binding affinity to 2HA-tagged PXR fused HiBiT-tagged FKBP12 (F36V) mutant (unknown origin) expressed in HepG2 cells assessed as change in FKBP-PXR expression at 10 uM measured after 24 hrs by Western blot analysis relative to control. The format is cell-based. Conditions: Homo sapiens.
Data set [10] has as its target T1, Protein cereblon/Peptidyl-prolyl cis-trans isomerase FKBP1A/Nuclear receptor subfamily 1 group I member 2. The experiment in a line: Molecular glue activity at HA-tagged […]/2HA-tagged PXR fused HiBiT-tagged FKBP12 (F36V) mutant (unknown origin) expressed in HepG2 cells assessed as induction of PXR degradation by measuring change in CRBN expression at 0.01 uM measured after 24 hrs by Western blot analysis relative to control. The format is cell-based. Conditions: hepg2, 24 h.

Data set [11] shares this target. The experiment in a line: Molecular glue activity at HA-tagged […]/2HA-tagged PXR fused HiBiT-tagged FKBP12 (F36V) mutant (unknown origin) expressed in HepG2 cells assessed as induction of PXR degradation by measuring change in FKBP-PXR expression at 10 uM measured after 24 hrs by Western blot analysis relative to control. In kind it is cell-based. Conditions: hepg2, 24 h.

The subject of data set [12] is HepG2. The experiment in a line: Binding affinity to 2HA-tagged PXR fused HiBiT-tagged FKBP12 (F36V) mutant (unknown origin) expressed in HepG2 cells assessed as change in FKBP-PXR expression at 1 uM measured after 24 hrs by Western blot analysis relative to control. Conditions: Homo sapiens. The format is cell-based.
Data set [13] concerns the target T1, Protein cereblon/Peptidyl-prolyl cis-trans isomerase FKBP1A/Nuclear receptor subfamily 1 group I member 2. As to the kind of experiment: Molecular glue activity at HA-tagged […]/2HA-tagged PXR fused HiBiT-tagged FKBP12 (F36V) mutant (unknown origin) expressed in HepG2 cells assessed as induction of PXR degradation by measuring change in CRBN expression at 0.1 uM measured after 24 hrs by Western blot analysis relative to control. The format is cell-based. Conditions: hepg2, 24 h.

Data set [14] shares this target. The experiment in a line: Molecular glue activity at HA-tagged […]/2HA-tagged PXR fused HiBiT-tagged FKBP12 (F36V) mutant (unknown origin) expressed in HepG2 cells assessed as induction of PXR degradation by measuring change in FKBP-PXR expression at 0.001 uM measured after 24 hrs by Western blot analysis relative to control. The format is cell-based. Conditions: hepg2, 24 h.

For data set [15] the target is unchanged. As to the kind of experiment: Molecular glue activity at HA-tagged CLR4-CRBN/2HA-tagged PXR fused HiBiT-tagged FKBP12 (F36V) mutant (unknown origin) expressed in HepG2 cells assessed as induction of PXR degradation measured after 24 hrs by Nano-Glo HiBiT assay. In kind it is cell-based. Conditions: hepg2, 24 h.
Data set [16] concerns HepG2. As to the kind of experiment: Binding affinity to 2HA-tagged PXR fused HiBiT-tagged FKBP12 (F36V) mutant (unknown origin) expressed in HepG2 cells assessed as change in FKBP-PXR expression at 0.1 uM measured after 24 hrs by Western blot analysis relative to control. The format is cell-based. Conditions: Homo sapiens.
Data set [17] addresses T1, Protein cereblon/Peptidyl-prolyl cis-trans isomerase FKBP1A/Nuclear receptor subfamily 1 group I member 2. As to the kind of experiment: Molecular glue activity at HA-tagged […]/2HA-tagged PXR fused HiBiT-tagged FKBP12 (F36V) mutant (unknown origin) expressed in HepG2 cells assessed as induction of PXR degradation by measuring change in CRBN expression at 0.0001 uM measured after 24 hrs by Western blot analysis relative to control. The format is cell-based. Conditions: hepg2, 24 h.

For data set [18], the system named is HepG2. The experiment in a line: Binding affinity to 2HA-tagged PXR fused HiBiT-tagged FKBP12 (F36V) mutant (unknown origin) expressed in HepG2 cells assessed as change in FKBP-PXR expression at 0.01 uM measured after 24 hrs by Western blot analysis relative to control. In kind it is cell-based. The note with it: Homo sapiens.
Data set [19] has as its target T1, Protein cereblon/Peptidyl-prolyl cis-trans isomerase FKBP1A/Nuclear receptor subfamily 1 group I member 2. The experiment in a line: Molecular glue activity at HA-tagged […]/2HA-tagged PXR fused HiBiT-tagged FKBP12 (F36V) mutant (unknown origin) expressed in HepG2 cells assessed as induction of PXR degradation by measuring change in FKBP-PXR expression at 0.1 uM measured after 24 hrs by Western blot analysis relative to control. In kind it is cell-based. Conditions: hepg2, 24 h.

Data set [20] has as its system HepG2. The experiment in a line: Binding affinity to 2HA-tagged PXR fused HiBiT-tagged FKBP12 (F36V) mutant (unknown origin) expressed in HepG2 cells assessed as change in FKBP-PXR expression at 0.001 uM measured after 24 hrs by Western blot analysis relative to control. In kind it is cell-based. The note with it: Homo sapiens.
The target in data set [21] is T2, Nuclear receptor subfamily 1 group I member 2 (Homo sapiens, UniProt O75469).
T2 sequence (O75469 whole entry): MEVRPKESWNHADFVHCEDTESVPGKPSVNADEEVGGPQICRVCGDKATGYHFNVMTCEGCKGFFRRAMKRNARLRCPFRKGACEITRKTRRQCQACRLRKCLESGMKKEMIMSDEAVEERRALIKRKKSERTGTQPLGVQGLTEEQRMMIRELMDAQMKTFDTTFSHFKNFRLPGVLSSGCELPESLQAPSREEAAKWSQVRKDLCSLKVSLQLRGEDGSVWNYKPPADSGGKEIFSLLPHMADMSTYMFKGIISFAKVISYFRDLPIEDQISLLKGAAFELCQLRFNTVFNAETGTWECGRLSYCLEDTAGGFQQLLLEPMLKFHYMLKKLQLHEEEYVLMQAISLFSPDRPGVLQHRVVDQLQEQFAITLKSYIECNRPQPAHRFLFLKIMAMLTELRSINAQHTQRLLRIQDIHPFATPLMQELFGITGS
The experiment in a line: Induction of PXR degradation in PXR knock in human SNU-C4 cells at 0.0001 to 1 uM measured after 24 hrs by Western blot analysis. The format is cell-based. The note with it: snu-c4, 24 h, dose 0.0001-1 µM. On the technique in general: A western blot detects proteins with antibodies after separation by electrophoresis.

The next data set relates to SNU-C4. As to the kind of experiment: Cytotoxicity against PXR knock in human SNU-C4 cells measured after 72 hrs by celltiter-glo assay. The format is functional.

T1 sequence (P62942 2-108 F37V limits assumed, stated change not applied, one chain of several): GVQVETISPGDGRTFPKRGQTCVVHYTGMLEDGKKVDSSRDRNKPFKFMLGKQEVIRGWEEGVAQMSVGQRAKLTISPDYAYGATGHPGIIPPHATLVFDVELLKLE
T1 sequence (Q96SW2 whole entry, stated change not applied, one chain of several, the tested form may be a part): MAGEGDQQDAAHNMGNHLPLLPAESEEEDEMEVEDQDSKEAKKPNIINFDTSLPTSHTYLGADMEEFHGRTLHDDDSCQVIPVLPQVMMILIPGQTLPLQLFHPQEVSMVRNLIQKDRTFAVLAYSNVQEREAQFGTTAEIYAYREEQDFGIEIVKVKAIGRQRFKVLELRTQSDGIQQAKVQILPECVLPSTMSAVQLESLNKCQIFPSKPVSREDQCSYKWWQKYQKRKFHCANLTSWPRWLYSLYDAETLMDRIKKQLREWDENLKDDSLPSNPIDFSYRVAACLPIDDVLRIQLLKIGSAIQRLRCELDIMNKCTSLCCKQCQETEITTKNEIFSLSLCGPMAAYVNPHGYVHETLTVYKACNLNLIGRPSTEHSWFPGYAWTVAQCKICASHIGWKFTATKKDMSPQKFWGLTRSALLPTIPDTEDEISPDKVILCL
Chain of Protein cereblon/DNA damage-binding protein 1 (Q96SW2 whole entry): as the sequence (Q96SW2 whole entry, stated change not applied, one chain of several, the tested form may be a part) above
Chain of Protein cereblon/DNA damage-binding protein 1 (Q16531 whole entry, further chain): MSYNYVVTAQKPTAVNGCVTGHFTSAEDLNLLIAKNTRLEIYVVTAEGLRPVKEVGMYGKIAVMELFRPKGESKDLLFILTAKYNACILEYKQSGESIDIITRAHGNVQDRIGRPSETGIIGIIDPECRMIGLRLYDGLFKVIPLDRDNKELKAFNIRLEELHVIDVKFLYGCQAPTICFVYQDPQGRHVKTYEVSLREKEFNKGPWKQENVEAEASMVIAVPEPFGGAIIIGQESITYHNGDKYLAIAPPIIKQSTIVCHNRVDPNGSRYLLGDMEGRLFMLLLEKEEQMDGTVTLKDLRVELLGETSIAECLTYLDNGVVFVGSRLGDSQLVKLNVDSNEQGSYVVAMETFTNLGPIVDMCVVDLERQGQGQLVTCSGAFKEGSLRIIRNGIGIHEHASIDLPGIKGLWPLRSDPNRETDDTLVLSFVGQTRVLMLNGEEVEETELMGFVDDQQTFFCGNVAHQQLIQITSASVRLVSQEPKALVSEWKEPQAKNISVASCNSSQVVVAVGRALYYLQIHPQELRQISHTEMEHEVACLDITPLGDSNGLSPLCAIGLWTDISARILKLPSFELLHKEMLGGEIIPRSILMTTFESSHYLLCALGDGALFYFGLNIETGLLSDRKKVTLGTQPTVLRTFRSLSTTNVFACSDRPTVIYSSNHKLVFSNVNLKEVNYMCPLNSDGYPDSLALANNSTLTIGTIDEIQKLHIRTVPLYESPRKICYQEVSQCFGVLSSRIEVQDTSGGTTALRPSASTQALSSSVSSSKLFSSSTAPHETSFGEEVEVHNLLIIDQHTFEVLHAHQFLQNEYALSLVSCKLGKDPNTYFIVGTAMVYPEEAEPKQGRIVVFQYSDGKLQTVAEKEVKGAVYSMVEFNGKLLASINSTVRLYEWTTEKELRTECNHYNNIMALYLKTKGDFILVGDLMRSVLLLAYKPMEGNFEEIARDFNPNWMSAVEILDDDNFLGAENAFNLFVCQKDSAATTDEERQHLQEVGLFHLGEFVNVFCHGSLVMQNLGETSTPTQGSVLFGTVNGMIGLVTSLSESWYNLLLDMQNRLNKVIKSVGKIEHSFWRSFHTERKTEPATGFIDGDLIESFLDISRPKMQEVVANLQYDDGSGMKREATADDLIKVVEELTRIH

On to `COc1ccc(OC)c(-n2nnc(C(=O)Nc3cc(OCCNc4cccc5c4C(=O)N(C4CCC(=O)NC4=O)C5=O)cc(C(C)(C)C)c3)c2C)c1` (stereo not given), for which the half-maximal effective concentration (EC50) in data set [1] came to 23 nM.

`CC[C@H](C(=O)N1CCCC[C@H]1C(=O)O[C@H](CCc1ccc(OC)c(OC)c1)c1ccccc1OCC(=O)NCCCCCCOc1cccc2c1C(=O)N(C1CCC(=O)NC1=O)C2=O)c1cc(OC)c(OC)c(OC)c1` (stereo not given in full): the “fold change (FC)” value in data set [2] came out at 0.8; in the data set with HepG2 [3] it was 1.1; in [4], 0.9; in [5], 0.8; in data set [6], 0.5; in data set [7] it was 2.2. Also, the “fold change (FC)” value was determined as 3.6 in data set [8]; 1 with HepG2 [9]; 1.1 in data set [10]; 1.4 in data set [11]; 0.9 in the data set with HepG2 [12]; 1.3 in data set [13]. Further, the “fold change (FC)” value in [14] amounted to 0.7; with HepG2 [16], 1.1; in data set [17], 0.9; with HepG2 [18], 1.2; in data set [19], 0.5; in the data set with HepG2 [20], 1.3. The outcome in [15] was Active.

`COc1ccc(OC)c(-n2nnc(S(=O)(=O)c3ccc(C(C)(C)C)cc3)c2C)c1` displayed a 50% effective concentration (EC50) in data set [1] of over 3000 nM.

`CC(=O)Nc1cc(Oc2cccc3c2C(=O)N(C2CCC(=O)NC2=O)C3=O)cc(C(C)(C)C)c1` (stereo not given) displayed a 50% effective concentration (EC50) in [1] of 11 nM.

In [1], `COc1ccc(OC)c(-n2nnc(C(=O)Nc3cc(OC(=O)CNc4cccc5c4C(=O)N(C4CCC(=O)NC4=O)C5=O)cc(C(C)(C)C)c3)c2C)c1` (stereo not given) came in with a concentration giving a half-maximal response (EC50) of 17 nM.

As for `Cc1ccc(NC(=O)NCc2ccc3c(c2)CN(C2CCC(=O)NC2=O)C3=O)cc1Cl` (stereo not given), the outcome in data set [21] was Active. The same compound came in with a 50% cytotoxic concentration (CC50) in the data set with SNU-C4 of 440 nM.
